Converted amounts (≈) assume the structure as drawn. Each block holds one compound with its values, some of them ahead of it.
Structure (SMILES): CCCCOC(=O)C1(O)c2ccccc2-c2ccccc21
solubility (20 °C): 129 µM (≈ 36.5 µg/mL)

Structure (SMILES): COc1ccc(C(=CC(=O)N2CCOCC2)c2ccc(Cl)cc2)cc1OC
logP: 2.68

Structure (SMILES): O=C1c2ccccc2C(=O)C1C(=O)C(c1ccccc1)c1ccccc1
solubility: 0.881 µM (≈ 0.3 µg/mL)

Structure (SMILES): CC(C)(C)c1ccc(CSc2cnn(C(C)(C)C)c(=O)c2Cl)cc1
logP: 6.37

Structure (SMILES): C#CCC1=C(C)C(OC(=O)C2C(C=C(C)C)C2(C)C)CC1=O (stereo not given)
logP: 4.49
solubility (25 °C): 26.6 µM (≈ 8 µg/mL)

Structure (SMILES): CCCCOC(=O)N(C)SN(C)C(=O)Oc1cccc2c1OC(C)(C)C2
solubility (25 °C): 27.4 µM (≈ 10.5 µg/mL)

solubility (pH 9.0, 20 °C): 687 µM (≈ 150 µg/mL)
Structure (SMILES): Cc1ccc(N=c2sccn2C)c(C)c1

logP: 4.26
Structure (SMILES): CCOC(=O)CCCOc1ccc(Cl)cc1C

Structure (SMILES): CCn1cc(C(=O)O)c(=O)c2cc3c(cc21)OCO3
solubility (25 °C): 12.2 µM (≈ 3.2 µg/mL)

Structure (SMILES): CCN(C(=O)SCc1ccccc1)C(C)C(C)C (stereo not given)
solubility (20 °C): 18.5 µM (≈ 4.9 µg/mL)

Structure (SMILES): CCCCN(CC)C(=O)SCCC
logP: 3.83

Structure (SMILES): CCOC(=O)CCN(SN(C)C(=O)Oc1cccc2c1OC(C)(C)C2)C(C)C
logP: 4.3

Structure (SMILES): Nc1c(Cl)c(Cl)nc(C(=O)O)c1Cl
solubility (25 °C): 1780 µM (≈ 430 µg/mL)

Structure (SMILES): CCOC(=O)C1(C)OC(=O)N(c2cc(Cl)cc(Cl)c2)C1=O (stereo not given)
solubility (25 °C): 24.1 µM (≈ 8 µg/mL)

Structure (SMILES): COc1ccc(C(O)(c2cncnc2)C2CC2)cc1 (stereo not given)
logP: 1.91

logP: 4.5
solubility (pH 6.5, 23 °C): 3.1 µM (≈ 1.19 µg/mL)
Structure (SMILES): CCCCOC(=O)C(C)Oc1ccc(Oc2ccc(C(F)(F)F)cn2)cc1 (stereo not given)

Structure (SMILES): CNC(=O)Oc1ccccc1OC(CCl)OC (stereo not given)
solubility (20 °C): 5010 µM (≈ 1300 µg/mL)

solubility (20 °C): 2230 µM (≈ 900 µg/mL)
Structure (SMILES): Cc1nn(C)c(OCC(=O)c2ccccc2)c1C(=O)c1ccc(Cl)cc1Cl

Structure (SMILES): Oc1ccccc1-c1ccccc1
solubility (25 °C): 4110 µM (≈ 700 µg/mL)

Structure (SMILES): O=C1C(Cl)=C(Cl)C(=O)N1c1ccc(F)cc1
logP: 2.3

Structure (SMILES): CCCSP(=O)(OCC)SCCC
logP: 3.59

Structure (SMILES): CNC(=O)Oc1ccc(C)c(C)c1
solubility (20 °C): 7250 µM (≈ 1300 µg/mL)

Structure (SMILES): CC(C)(C)c1ccc(CCOc2ncnc3ccccc23)cc1
logP: 5.51
solubility (20 °C): 0.718 µM (≈ 0.22 µg/mL)

logP: 4.33
Structure (SMILES): CCOCCOC(=O)C(C)Oc1ccc(Oc2ncc(C(F)(F)F)cc2Cl)cc1 (stereo not given)

solubility (27 °C): 2.57 µM (≈ 0.75 µg/mL)
Structure (SMILES): CC(Oc1ccc2ccccc2c1)C(O)=Nc1ccccc1 (stereo not given)

solubility (25 °C): 2620 µM (≈ 600 µg/mL)
Structure (SMILES): COc1ccc(NC(=O)N(C)C)cc1Cl

Structure (SMILES): O=C(O)c1cc(Oc2ccc(C(F)(F)F)cc2Cl)ccc1[N+](=O)[O-]
solubility (25 °C): 332 µM (≈ 120 µg/mL)

Structure (SMILES): O=C(NC(=O)c1c(F)cccc1F)Nc1ccc(Cl)c(Oc2ncc(C(F)(F)F)cc2Cl)c1
logP: 5.1

Structure (SMILES): CCOc1cc(Oc2ccc(C(F)(F)F)cc2Cl)ccc1[N+](=O)[O-]
solubility (25 °C): 0.298 µM (≈ 0.108 µg/mL)

Structure (SMILES): CS(=O)(=O)NC(=O)c1cc(Oc2ccc(C(F)(F)F)cc2Cl)ccc1[N+](=O)[O-]
logP: 2.9

Structure (SMILES): COP(=O)(OC)O/C(=C\Cl)c1ccc(Cl)cc1Cl
solubility (20 °C): 392 µM (≈ 130 µg/mL)

Structure (SMILES): COC(=O)Nc1cccc(OC(=O)Nc2cccc(C)c2)c1
logP: 3.59

Structure (SMILES): CCOS(=O)(=O)c1ccc2c(c1)C(C)(C)CO2
logP: 2.41

solubility: 780000 µM
Structure (SMILES): S=C([S-])NCCNC(=S)[S-].[Na+].[Na+]

Structure (SMILES): CCOP(=S)(OCC)OC(Cl)C(Cl)(Cl)Cl (stereo not given)
logP: 4.59

Structure (SMILES): CCOC(=O)CCN(Cc1ccccc1)SN(C)C(=O)O/N=C(/C)SC
logP: 3.43

logP: 1.98
Structure (SMILES): CN(C)C(=O)Nc1cc(C(C)(C)C)on1

Structure (SMILES): CCC(C)c1ccccc1OC(=O)NC (stereo not given)
solubility (20 °C): 3180 µM (≈ 660 µg/mL)

solubility (20 °C): 0.968 µM (≈ 0.32 µg/mL)
Structure (SMILES): COc1cccc(N(C)C(=S)Oc2cccc(C(C)(C)C)c2)n1

Structure (SMILES): CSc1nnc(C(C)(C)C)c(=O)n1N
solubility (20 °C): 5280 µM (≈ 1130 µg/mL)

Structure (SMILES): CCOC(=O)c1cn2nc(OP(=S)(OCC)OCC)cc2nc1C
logP: 3.8

Structure (SMILES): CCOP(=O)(Oc1ccc(Cl)cc1Cl)Oc1ccc(Cl)cc1Cl
solubility (20 °C): 1.68 µM (≈ 0.7 µg/mL)

solubility (25 °C): 0.0371 µM (≈ 0.013 µg/mL)
Structure (SMILES): CCCN(CCC)c1c([N+](=O)[O-])cc(C(F)(F)F)c(N)c1[N+](=O)[O-]

solubility (20 °C): 0.245 µM (≈ 0.09 µg/mL)
Structure (SMILES): CCCCCCC(C)OC(=O)COc1nc(F)c(Cl)c(N)c1Cl (stereo not given)

Structure (SMILES): CN(C)C(=O)C(c1ccccc1)c1ccccc1
solubility (27 °C): 1090 µM (≈ 260 µg/mL)

Structure (SMILES): CC(C)C1CCC(Cc2ccc(Cl)cc2)C1(O)Cn1cncn1 (stereo not given)
logP: 4.21

Structure (SMILES): N#Cc1c[nH]cc1-c1cccc2c1OC(F)(F)O2
logP: 4.12
